How the values were obtained:
[1] = tested on: aged mice with sarcopenia; assay: Maraviroc treatment of aged mice with sarcopenia; assay type: in vivo, mouse; settings: 16-month-old mice, 2.5 mg/kg intraperitoneally twice a week for 6 months
Experimental: Next, to further illustrate the possible application for treating other muscle degenerative diseases, the effectiveness of Maraviroc is tested in aged mice with sarcopenia. 3 pairs of 16-month-old mice are intraperitoneally injected with vehicle (5% DMSO) or Maraviroc (2.5 mg/kg) twice a week for 6 months, as shown in FIG. 7. […] Overall, the Maraviroc treatment delays muscle aging and rejuvenates the mice.

[2] = tested on: dKO mice; assay: Maraviroc treatment of dystrophic dKO (YY1; mdx) and Ctrl mice, DMD mouse model; assay type: in vivo; settings: for voluntary exercise (running distance on exercise wheels): recorded daily for one week, FIG. 6
From the text: The research object of this invention is based on a mouse model of human Duchenne muscular dystrophy (DMD), a congenital mutation in the muscular dystrophy protein leading to spontaneous periodic muscle damage and repair. Chronic inflammation and fibrosis are typical hallmarks of DMD and may contribute to impaired skeletal muscle regeneration. […] These YY1; mdx mice (so called double knock out dKO) display decreased body and muscle weight, severe inflammation and fibrosis, and reduced lifespan. As illustrated in FIGS. 1A-1D, the body weights are continuously monitored and measured at 3M, 5M and 7M intervals and the dKO mice show continuous weight loss compared to Ctrl mice (see FIG. 1A) as time progresses. Furthermore, the reduction in muscle weight (tibialis anterior) and thickness (diaphragm) is also observed over time in contrast to Ctrl mice (see FIG. 1B). […] Meanwhile, excessive inflammation is observed on the dKO muscles as shown by the amount of immune cells infiltration in the interstitial area (see FIG. 1C), along with aggravated fibrosis (detected by Masson's Trichrome staining, see FIG. 1D).
To test the therapeutic effect of Maraviroc on the dystrophic muscles, the above-described Ctrl and dKO mice are treated with dimethyl sulfoxide (DMSO) or Maraviroc respectively.
Next, the muscle morphology is evaluated on the above-treated four groups of mice.
Next it is examined if the treatment improves muscle functions by testing the muscle performance in exercises. Both endurance and voluntary exercises are employed. For endurance exercise, mice are first placed in a treadmill machine, where the bottom of the running track is equipped with an electric shock device to force the mice to continue running as illustrated in FIG. 5. The initial speed is set to 10 cm/s and increased by 5 cm/s every two minutes. By recording the running distance until the mice are exhausted, their endurance strength is determined. […] For voluntary exercise, the mice are placed in cages equipped with exercise wheels, which are connected to counters that accurately record the distance travelled by the mice on the wheels, as illustrated in FIG. 6. The mice are continuously housed in the cages for one week, and their exercise distance on the wheels is recorded daily.

[3] = Phase IIa study; cited from earlier work
[4] = dKO mice, 60 ug in 5% DMSO intraperitoneally every two days for one month, FIG. 2

Cc1nnc(C(C)C)n1[C@@H]1C[C@H]2CC[C@@H](C1)N2CC[C@H](NC(=O)C1CCC(F)(F)CC1)c1ccccc1 [Maraviroc]
TA muscle weight ([1]; FIG. 8): restored
fiber size ([1]; FIG. 8): increased
inflammation ([1]; FIG. 8): attenuated
muscle morphology (H&E staining) ([1]; FIG. 8): remarkable improvement
muscle functions (grip force and treadmill running) ([1]; FIG. 9): restored
number of FAPs and macrophages ([1]; FIG. 10): reduced number
number of MuSCs ([1]; FIG. 10): increased number
muscle morphology, immune cell infiltration and inflammation (H&E staining of TA muscles) ([2]; Ctrl and dKO muscles, FIG. 3): improved morphology with reduced immune cell infiltration and inflammation
effect on body weight of Ctrl mice ([2]; Ctrl mice, 60 ug intraperitoneally every two days for one month, FIG. 2): no obvious effect
voluntary exercise (running distance on exercise wheels) ([2]; Ctrl mice): high level of voluntary exercise
endurance strength (treadmill running distance until exhausted) ([2]; dKO mice, versus dKO mice treated with DMSO, FIG. 5): significantly higher
body weight [2, 4]: significantly restored
muscle weight [2, 4]: significantly restored
muscle fibrosis (Masson's Trichrome staining) ([2]; dKO mice, FIG. 4): significantly alleviate
voluntary exercise (running distance on exercise wheels) ([2]; dKO mice): consistent increase in running distance over time
efficacy in the treatment of RA [3]: no efficacy

Reference: patent US20240316027A1, “USE OF MARAVIROC IN PREPARATION OF DRUGS FOR TREATMENT OF MUSCLE DEGENERATIVE DISEASES” (Center for Neuromusculoskeletal Restorative Medicine Limited, priority 2023, published 2024)
